Data taken from PubChem BioAssay (NCI).
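Step 1: Grow cells in 96-well plates. Step 2: Expose to compound for 48 hours at 5 concentrations. Step 3: Interpolate endpoints linearly; if unreached, use highest concentration. GI50 marks 50% less growth. The concentration for full growth arrest is given as TGI.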

Experiments:
Assay in all cases: NCI anticancer screen, dose series, 48 h
[1] = test system: 786-0 renal
[2] = test system: HOP-62 NSCLC
[3] = test system: SK-OV-3 ovarian
[4] = test system: MDA-MB-231 breast
[5] = test system: CCRF-CEM leukemia
[6] = test system: U251 CNS
[7] = test system: MALME-3M melanoma
[8] = test system: MDA-MB-435
[9] = test system: OVCAR-4 ovarian
[10] = test system: NCI-H226 lung
[11] = test system: OVCAR-5 ovarian
[12] = test system: A498 renal
[13] = test system: HCC-2998 colon
[14] = test system: KM12 colon
[15] = test system: SF-539 CNS
[16] = test system: NCI-H522 lung
[17] = test system: IGROV1 ovarian
[18] = test system: CAKI-1 renal
[19] = test system: SR leukemia
[20] = test system: HCT-15 colon
[21] = test system: RPMI-8226 leukemia
[22] = test system: NCI-H460 lung
[23] = test system: HOP-92 NSCLC
[24] = test system: UO-31 renal
[25] = test system: HL-60(TB) leukemia
[26] = test system: SNB-75 CNS
[27] = test system: TK-10 renal
[28] = test system: A549 NSCLC
[29] = test system: BT-549 breast
[30] = test system: MCF7 breast
[31] = test system: SK-MEL-5 melanoma
[32] = test system: HS 578T breast
[33] = test system: HT29 colon
[34] = test system: OVCAR-3 ovarian
[35] = test system: SK-MEL-28 melanoma
[36] = test system: RXF 393 renal
[37] = test system: SF-268 CNS
[38] = test system: UACC-62 melanoma
[39] = test system: ACHN renal
[40] = test system: OVCAR-8 ovarian
[41] = test system: SK-MEL-2 melanoma
[42] = test system: K-562 leukemia
[43] = test system: SN12C renal
[44] = test system: EKVX NSCLC
[45] = test system: SF-295 CNS
[46] = test system: PC-3 prostate
[47] = test system: NCI/ADR-RES ovarian
[48] = test system: LOX IMVI melanoma
[49] = test system: DU-145 prostate
[50] = test system: MOLT-4 leukemia
[51] = test system: SW-620 colon
[52] = test system: SNB-19 CNS
[53] = test system: HCT-116 colon
[54] = test system: COLO 205 colon
[55] = test system: UACC-257 melanoma
[56] = test system: M14 melanoma
[57] = test system: T-47D breast

Structure (SMILES): O=C1Nc2cc(OC(F)(F)F)ccc2Oc2ccc(-c3ccnc(N4CC[C@H](O)C4)c3)cc21
- GI50 [1]: 31.6 nM
- TGI [1]: 2740 nM
- GI50 [2]: 35.1 nM
- TGI [2]: 4530 nM
- GI50 [3]: 36.7 nM
- TGI [3]: 14700 nM
- GI50 [4]: 48 nM
- TGI [4]: 1830 nM
- GI50 [5]: 25.1 nM
- TGI [5]: 2600 nM
- GI50 [6]: 35.8 nM
- TGI [6]: 1850 nM
- GI50 [7]: 48.9 nM
- TGI [7]: 2090 nM
- GI50 [8]: < 10 nM
- TGI [8]: < 11.6 nM
- GI50 [9]: 1120 nM
- TGI [9]: 3000 nM
- GI50 [10]: 280 nM
- TGI [10]: 5540 nM
- GI50 [11]: 49.2 nM
- TGI [11]: 6370 nM
- GI50 [12]: 10600 nM
- TGI [12]: 25900 nM
- GI50 [13]: 30 nM
- TGI [13]: 1550 nM
- GI50 [14]: < 15.2 nM
- TGI [14]: 2470 nM
- GI50 [15]: 22.7 nM
- TGI [15]: 1040 nM
- GI50 [16]: < 13.1 nM
- TGI [16]: 42.9 nM
- GI50 [17]: 43.1 nM
- TGI [17]: 8780 nM
- GI50 [18]: < 10 nM
- TGI [18]: 9640 nM
- GI50 [19]: < 10 nM
- TGI [19]: 2210 nM
- GI50 [20]: 10.3 nM
- TGI [20]: 2860 nM
- GI50 [21]: 34.9 nM
- TGI [21]: 2050 nM
- GI50 [22]: < 12.9 nM
- TGI [22]: 1060 nM
- GI50 [23]: 1810 nM
- TGI [23]: 18700 nM
- GI50 [24]: 57 nM
- TGI [24]: 5630 nM
- GI50 [25]: < 10 nM
- TGI [25]: 105 nM
- GI50 [26]: < 16.3 nM
- TGI [26]: 1120 nM
- GI50 [27]: 7650 nM
- TGI [27]: 17300 nM
- GI50 [28]: 39.2 nM
- TGI [28]: 3460 nM
- GI50 [29]: 138 nM
- TGI [29]: 1690 nM
- GI50 [30]: < 10 nM
- TGI [30]: 1620 nM
- GI50 [31]: 37.8 nM
- TGI [31]: 487 nM
- GI50 [32]: 23.9 nM
- TGI [32]: 5590 nM
- GI50 [33]: 16.3 nM
- TGI [33]: 261 nM
- GI50 [34]: < 11.7 nM
- TGI [34]: 1330 nM
- GI50 [35]: 1200 nM
- TGI [35]: 2600 nM
- GI50 [36]: < 15.4 nM
- TGI [36]: 323 nM
- GI50 [37]: 485 nM
- TGI [37]: 15800 nM
- GI50 [38]: < 17.3 nM
- TGI [38]: 5240 nM
- GI50 [39]: 55.2 nM
- TGI [39]: 5150 nM
- GI50 [40]: 34.3 nM
- TGI [40]: 651 nM
- GI50 [41]: 32.1 nM
- TGI [41]: 18500 nM
- GI50 [42]: < 10 nM
- TGI [42]: 1730 nM
- GI50 [43]: 103 nM
- TGI [43]: 2680 nM
- GI50 [44]: 43.5 nM
- TGI [44]: 20400 nM
- GI50 [45]: 16.6 nM
- TGI [45]: 6260 nM
- GI50 [46]: 19.4 nM
- TGI [46]: 5480 nM
- GI50 [47]: 30.6 nM
- TGI [47]: 6250 nM
- GI50 [48]: 32 nM
- TGI [48]: 1490 nM
- GI50 [49]: 44.6 nM
- TGI [49]: 4380 nM
- GI50 [50]: 32.7 nM
- TGI [50]: 2160 nM
- GI50 [51]: < 17.7 nM
- TGI [51]: 1660 nM
- GI50 [52]: 36.6 nM
- TGI [52]: 5740 nM
- GI50 [53]: < 10 nM
- TGI [53]: 1190 nM
- GI50 [54]: 18.1 nM
- TGI [54]: 51.3 nM
- GI50 [55]: 3600 nM
- TGI [55]: 9370 nM
- GI50 [56]: 11.4 nM
- TGI [56]: 1810 nM

Structure (SMILES): Nc1nc(N)c2c(n1)NC(c1ccc(C(F)(F)F)cc1)CC(c1ccc(Nc3nc(NCCO)nc(Nc4ccc(Cl)cc4)n3)cc1)=N2 (stereo not drawn)
- GI50 [1]: 1390 nM
- TGI [1]: 2910 nM
- GI50 [2]: 1630 nM
- TGI [2]: 3160 nM
- GI50 [3]: 1830 nM
- TGI [3]: 3450 nM
- GI50 [5]: 1230 nM
- TGI [5]: > 100000 nM
- GI50 [6]: 1240 nM
- TGI [6]: 2530 nM
- GI50 [8]: 1400 nM
- TGI [8]: 2720 nM
- GI50 [10]: 1840 nM
- TGI [10]: 3910 nM
- GI50 [11]: 1600 nM
- TGI [11]: 3000 nM
- GI50 [57]: 1550 nM
- TGI [57]: 3690 nM
- GI50 [12]: 1560 nM
- TGI [12]: 2900 nM
- GI50 [13]: 1310 nM
- TGI [13]: 2620 nM
- GI50 [14]: 1370 nM
- TGI [14]: 2880 nM
- GI50 [15]: 1560 nM
- TGI [15]: 2970 nM
- GI50 [16]: 1340 nM
- TGI [16]: 2720 nM
- GI50 [18]: 1450 nM
- TGI [18]: 2850 nM
- GI50 [20]: 1150 nM
- TGI [20]: 2580 nM
- GI50 [22]: 1960 nM
- TGI [22]: 4010 nM
- GI50 [23]: 1480 nM
- TGI [23]: 3430 nM
- GI50 [24]: 1430 nM
- TGI [24]: 2760 nM
- GI50 [26]: 1700 nM
- TGI [26]: 3930 nM
- GI50 [27]: 1780 nM
- TGI [27]: 3170 nM
- GI50 [28]: 1730 nM
- TGI [28]: 3500 nM
- GI50 [29]: 1570 nM
- TGI [29]: 3160 nM
- GI50 [31]: 1550 nM
- TGI [31]: 2890 nM
- GI50 [33]: 1360 nM
- TGI [33]: 2990 nM
- GI50 [34]: 1320 nM
- TGI [34]: 2940 nM
- GI50 [35]: 1530 nM
- TGI [35]: 2860 nM
- GI50 [36]: 1140 nM
- TGI [36]: 2500 nM
- GI50 [37]: 1660 nM
- TGI [37]: 3470 nM
- GI50 [39]: 1500 nM
- TGI [39]: 2820 nM
- GI50 [40]: 1500 nM
- TGI [40]: 2940 nM
- GI50 [41]: 1670 nM
- TGI [41]: 3070 nM
- GI50 [42]: 642 nM
- TGI [42]: > 100000 nM
- GI50 [43]: 1760 nM
- TGI [43]: 3340 nM
- GI50 [44]: 1520 nM
- TGI [44]: 2960 nM
- GI50 [45]: 1790 nM
- TGI [45]: 3320 nM
- GI50 [49]: 1510 nM
- TGI [49]: 2840 nM
- GI50 [51]: 1600 nM
- TGI [51]: 3360 nM
- GI50 [52]: 1510 nM
- TGI [52]: 2950 nM
- GI50 [53]: 1050 nM
- TGI [53]: 2410 nM
- GI50 [54]: 1330 nM
- TGI [54]: 2640 nM
- GI50 [55]: 1750 nM
- TGI [55]: 3190 nM
- GI50 [56]: 1640 nM
- TGI [56]: 3060 nM
